The record followed here is PubChem BioAssay (NCI).

Some test systems named below: T-47D breast; RXF 393 renal; SK-MEL-5 melanoma; MOLT-4 leukemia; NCI-H522 lung; ACHN renal; SNB-19 CNS; SK-MEL-28 melanoma; NCI-H460 lung; HCT-15 colon.
Holding throughout (assay): growth of human tumour cells (NCI), 48 h

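Assay format: 96-well plates, 48-hour exposure. GI50: concentration for 50% inhibition of growth. TGI is the concentration that stops growth completely.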

With `C[C@@H]1C=C(CCCCCCCCCCC[C@H](O)[C@@H]2CCC(=O)O2)C(=O)O1`, the GI50 in the test on T-47D breast was 32.7 µM; in the test on RXF 393 renal, 47.2 µM; in the test on SK-MEL-5 melanoma, 14.5 µM; with MOLT-4 leukemia, 21.6 µM; with NCI-H522 lung, 15.9 µM; in the test on ACHN renal, 17.9 µM. Besides, the GI50 in the test with SNB-19 CNS is 86.5 µM; with SK-MEL-28 melanoma, 78.3 µM; with NCI-H460 lung, 31.2 µM; in the test with HCT-15 colon, 25.5 µM. The TGI with T-47D breast is 65.2 µM; in the test on RXF 393 renal, above 100 µM; in the test with SK-MEL-5 melanoma, 28.1 µM; with MOLT-4 leukemia, 42.6 µM; with NCI-H522 lung it was 49.2 µM; in the test on ACHN renal, 49.3 µM. Further, the TGI in the test with SNB-19 CNS, in the test with SK-MEL-28 melanoma, in the test on NCI-H460 lung and with HCT-15 colon was above 100 µM each time.

In the case of `O=C(O)c1cc2ccccc2c(O)c1O`, the TGI with T-47D breast is 57.7 µM; in the test on RXF 393 renal it was 31.7 µM; with SK-MEL-5 melanoma, 8.18 µM; in the test on MOLT-4 leukemia it was above 66.8 µM; in the test on NCI-H522 lung, 28.9 µM; in the test on ACHN renal, 31.8 µM. Besides, the TGI came out at 35.8 µM in the test with SNB-19 CNS, 18.1 µM in the test on SK-MEL-28 melanoma, 41.8 µM in the test with NCI-H460 lung and 42.6 µM in the test on HCT-15 colon.

In the case of `C=C1[C@@H](C)[C@H]2[C@H](Cc3ccccc3)NC(=O)[C@]23OC(=O)/C=C/[C@H](O)CCC[C@@H](C)C/C=C/[C@H]3[C@@H]1O`, the TGI in the test on T-47D breast was above 100 µM; in the test with RXF 393 renal, 27.9 µM; with SK-MEL-5 melanoma, 63.1 µM; with MOLT-4 leukemia, 72.3 µM; with NCI-H522 lung, above 92.2 µM; in the test with ACHN renal, above 57.4 µM. Also, the TGI is 64.1 µM in the test with SNB-19 CNS, above 100 µM with SK-MEL-28 melanoma, 57.8 µM in the test on NCI-H460 lung and 93.2 µM in the test on HCT-15 colon.

For `C(=N\Nc1ccccn1)/c1ccccn1`, the GI50 is 0.332 µM in the test with T-47D breast; 0.335 µM with RXF 393 renal; 0.392 µM in the test on MOLT-4 leukemia; 0.71 µM in the test with NCI-H522 lung; 0.294 µM in the test with ACHN renal; 0.547 µM with SNB-19 CNS. Further, the values for the GI50 in the test with SK-MEL-28 melanoma, in the test on NCI-H460 lung and in the test with HCT-15 colon were 0.816 µM, 0.321 µM and 0.368 µM, respectively. Besides, the TGI in the test on T-47D breast is above 100 µM; with MOLT-4 leukemia, above 100 µM; with NCI-H522 lung, above 100 µM; in the test on SNB-19 CNS, above 100 µM; with SK-MEL-28 melanoma it was above 100 µM; in the test on NCI-H460 lung, 3.98 µM. Also, the TGI in the test with HCT-15 colon was above 100 µM.

Regarding `CCN(Cc1cccc(OC)c1)c1ccc(CO)c(Cl)c1`, the GI50 in the test with T-47D breast was 0.165 µM; in the test on RXF 393 renal, 11.9 µM; in the test with SK-MEL-5 melanoma, 10.2 µM; with MOLT-4 leukemia, 21.2 µM; in the test on NCI-H522 lung, 9.51 µM; with ACHN renal, 26.5 µM. Further, the GI50 is 24 µM with SNB-19 CNS, 14.7 µM with SK-MEL-28 melanoma, 0.272 µM in the test on NCI-H460 lung and 14.8 µM in the test with HCT-15 colon. For the same compound, the TGI in the test on T-47D breast is 1.83 µM; in the test on RXF 393 renal it was 28.8 µM; with SK-MEL-5 melanoma, 22.7 µM; in the test on MOLT-4 leukemia it was above 71.9 µM; with NCI-H522 lung it was 32.6 µM; with ACHN renal, 96.8 µM. For the same compound, the TGI is above 100 µM in the test on SNB-19 CNS, 35.8 µM with SK-MEL-28 melanoma, 14.1 µM in the test with NCI-H460 lung and 66.6 µM with HCT-15 colon.

For `Cc1ccc(C(CN(C)C)C(=O)c2ccccc2)cc1` (stereo unspecified), the GI50 is 2.35 µM with T-47D breast; 2.56 µM in the test on RXF 393 renal; 3.67 µM in the test on SK-MEL-5 melanoma; 1.68 µM in the test with MOLT-4 leukemia; 1.8 µM with NCI-H522 lung; 1.63 µM with ACHN renal. Also, the GI50 with SNB-19 CNS is 10.4 µM; with SK-MEL-28 melanoma, 2.83 µM; in the test with NCI-H460 lung, 7.38 µM; in the test on HCT-15 colon it was 1.7 µM. The TGI was determined as 12.7 µM in the test with T-47D breast; 7.52 µM in the test with RXF 393 renal; 13.6 µM in the test on SK-MEL-5 melanoma; 5.75 µM in the test on MOLT-4 leukemia; 3.52 µM in the test on NCI-H522 lung; 3.18 µM in the test on ACHN renal. In addition, the TGI in the test on SNB-19 CNS stood at 24.3 µM; in the test on SK-MEL-28 melanoma, 8.37 µM; in the test on NCI-H460 lung it was 21.9 µM; with HCT-15 colon it was 4.21 µM.

For the compound `CCCCn1c2cc(OCc3cn(-c4ccc(Cl)cc4)nn3)ccc2c2ccnc(C)c21`, the GI50 with T-47D breast was 4.3 µM; in the test with RXF 393 renal it was 6.5 µM; in the test on SK-MEL-5 melanoma, 5.35 µM; in the test with MOLT-4 leukemia, 6.07 µM; in the test with NCI-H522 lung, 4.72 µM; with ACHN renal, 5.06 µM. The GI50 in the test on SNB-19 CNS is 14.1 µM; in the test with SK-MEL-28 melanoma, 5.82 µM; with NCI-H460 lung, 7.2 µM; with HCT-15 colon, 6.74 µM. Further, the TGI in the test on T-47D breast was 15 µM; in the test on RXF 393 renal it was 19.8 µM; in the test with SK-MEL-5 melanoma, 9.87 µM; in the test on MOLT-4 leukemia it was 23.9 µM; in the test on NCI-H522 lung, 13.3 µM; with ACHN renal it was 10.3 µM. Besides, the TGI with SNB-19 CNS was above 33.3 µM; in the test on SK-MEL-28 melanoma it was 14 µM; in the test with NCI-H460 lung, 18.6 µM; with HCT-15 colon, above 33.3 µM.

As to `C1CC[N-]CC1.C1CC[N-]CC1.C1CC[N-]CC1.C1CC[N-]CC1.[Cl][Rh][Cl]`, the GI50 is 3.87 µM in the test on T-47D breast; 13.8 µM with RXF 393 renal; 4.2 µM with SK-MEL-5 melanoma; 13.7 µM in the test with MOLT-4 leukemia; 1.03 µM in the test with NCI-H522 lung; 50.1 µM in the test with ACHN renal. In addition, the GI50 is 4.75 µM in the test on SNB-19 CNS, 3.36 µM in the test on SK-MEL-28 melanoma, 2.87 µM with NCI-H460 lung and 41.2 µM in the test with HCT-15 colon. Also, the TGI is above 100 µM in the test with T-47D breast; 81.1 µM with RXF 393 renal; 18.9 µM in the test on SK-MEL-5 melanoma; above 100 µM with MOLT-4 leukemia; 2.65 µM in the test on NCI-H522 lung; above 100 µM in the test with ACHN renal. Also, the TGI in the test with SNB-19 CNS was above 100 µM; in the test on SK-MEL-28 melanoma, 21.6 µM; with NCI-H460 lung, 26.5 µM; in the test on HCT-15 colon it was above 100 µM.
